PMC5607274, “An iterative compound screening contest method for identifying target protein inhibitors using the tyrosine-protein kinase Yes” (Scientific Reports, 2017)

Biological target: T1, human recombinant Yes [a.a. 2–543 (end)] (Homo sapiens, UniProt P07947)
T1 construct: human recombinant Yes [a.a; 2–543 (end)]; purchased BPS Bioscience 40488
Experiment: ADP-Glo kinase assay, inhibition rates of Yes phosphorylation activity (first and second screening)
Format: biochemical
Conditions: first screening; mean of n = 4 wells; 10 μmol L−1 compound
Summary of the method: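 ADP-Glo luminescence measured inhibition of human recombinant Yes (a.a. 2–543) phosphorylation activity. In the first screen, each compound ran in 4 wells and inhibition rates were averaged. The second screen retested hits as compounds dissolved from fresh powder.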

T1 sequence (P07947 2-543): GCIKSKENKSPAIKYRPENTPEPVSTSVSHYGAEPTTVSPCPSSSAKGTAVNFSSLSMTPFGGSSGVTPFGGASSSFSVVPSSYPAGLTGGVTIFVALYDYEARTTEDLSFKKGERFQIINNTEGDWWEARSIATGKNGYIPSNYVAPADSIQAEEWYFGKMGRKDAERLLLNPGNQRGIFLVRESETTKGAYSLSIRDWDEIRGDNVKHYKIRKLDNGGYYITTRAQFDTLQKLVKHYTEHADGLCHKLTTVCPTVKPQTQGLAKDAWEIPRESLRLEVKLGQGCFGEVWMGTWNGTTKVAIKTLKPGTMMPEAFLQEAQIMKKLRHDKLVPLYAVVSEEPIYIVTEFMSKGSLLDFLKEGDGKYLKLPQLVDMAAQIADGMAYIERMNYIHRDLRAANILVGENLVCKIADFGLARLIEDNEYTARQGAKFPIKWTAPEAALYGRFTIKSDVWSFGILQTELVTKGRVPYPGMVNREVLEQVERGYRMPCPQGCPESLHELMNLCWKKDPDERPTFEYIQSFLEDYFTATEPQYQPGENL

| Compound | First screening IR (inhibition rate) [%] |
| --- | --- |
| COC(=O)c1sc2ncc(/C=C/C(=O)c3cccnc3)cc2c1C [Compound Z871886494] | 66 |
| COC(=O)c1sc2ncc(/C=C3\C(=O)Nc4ccccc43)cc2c1C [Compound Z872035512] | -4 |
| Cc1nc(-c2ccncc2)[nH]c(=O)c1CCC(=O)NCc1ccncc1 [Compound Z873001918] | 12 |
| CC1CCN(c2ccc([N+](=O)[O-])cc2C(=O)N2CCN(Cc3cn4cc(Cl)ccc4n3)CC2)CC1 [Compound Z901305410] | -17 |
| Cc1cc(NC(=O)c2cc(-c3cccs3)on2)n(CCC#N)n1 [Compound Z908095506] | -3 |
| Cc1c(C(=O)N(C2CCC(C)CC2)C2CC2)cnn1-c1ccc(=O)[nH]n1 (stereo not shown) [Compound Z908597782] | -8 |
| CN1CCC(N(C)c2ccc(NC(=O)c3c(O)cc(F)cc3F)cc2)CC1 [Compound Z910632940] | 6 |
| COc1ccc(C(=O)N2CCCC2)cc1NC(=O)CC1CCCC1 [Compound Z913725738] | 7 |
| COc1ccc(CN2CCC(CNC(=O)c3ccccc3SCc3c(C)noc3C)CC2)cc1 [Compound Z914096084] | -7 |
| O=C(CN1CCN(C(=O)c2oc3ccccc3c2CSc2nccc(=O)[nH]2)CC1)N1CCCCC1 [Compound Z915764402] | -15 |
| Cc1sc2nc(CN3CCC(C)CC3)nc(N3CCCN(C(=O)Cc4ccccn4)CC3)c2c1C [Compound Z915925636] | 0 |
| COc1cc(NC(=O)Cc2c(C)[nH]c3ccccc23)c(C(N)=O)cc1OC [Compound Z917537988] | -25 |
| CC(Oc1cccc(Cl)c1Cl)C(=O)Nc1ccc2nc[nH]c(=O)c2c1 (stereo not shown) [Compound Z927306002] | -9 |
| COc1ccccc1-c1cc(NC(=O)c2ccc(Cn3cncn3)cc2)n[nH]1 [Compound Z927972178] | 13 |
| FC(F)(F)c1ccnc(Nc2ccc3nc(C4CC4)sc3c2)n1 [Compound Z929767438] | -3 |
| COc1ccc(N(C)C(=O)c2[nH]nc(-c3ccccc3)c2Br)cn1 [Compound Z934680220] | -1 |
| CCOc1ccc(C(=O)Nc2ccc3c(c2)C(=O)NC3)cc1OCC [Compound Z943285536] | 18 |
| O=c1[nH]ncc(NCc2ccc(Cn3cnc4ccccc43)cc2)c1Cl [Compound Z951371090] | 5 |
| Cc1noc(C(C)NC(=O)C2CSCN2C(=O)c2ccccc2)n1 (stereo not shown) [Compound Z954394146] | -12 |
| Cc1c(NC(=O)C2CC(=O)N(c3ccc4c(c3)CCC4)C2)n[nH]c1C1CC1 (stereo not shown) [Compound Z954497746] | -9 |
| CCN1CCN(c2cc(CNC(=O)c3cn(-c4ccccc4)nc3-c3ccc(OC)cc3)ccn2)CC1 [Compound Z955363064] | -5 |
| O=C(Nc1cc(-c2ccc(Br)s2)[nH]n1)c1ccc2c(c1)COC2 [Compound Z956276516] | 68 |
| CC(C)c1cccc(N(C)C(=O)c2cccnc2S(=O)(=O)C(F)(F)F)c1 [Compound Z959760312] | 32 |
| O=C(NCCc1c[nH]c2cc(F)ccc12)c1cnc(-c2ccccc2)nc1 [Compound Z960870544] | 43 |

| Compound | First screening IR (inhibition rate) [%] |
| --- | --- |
| Cc1c(C(=O)Nc2ccc3c(ccn3CCN3CCOCC3)c2)nnn1-c1ccc(F)cc1 [Compound Z961847812] | -11 |
| COc1ccc(C)cc1N1CC(C(=O)Nc2ccc3c(ccn3CCN3CCOCC3)c2)CC1=O (stereo not shown) [Compound Z961849222] | 23 |
| CCOC(=O)Cn1ccc2cc(NC(=O)c3sc(-c4ccccc4)nc3C)ccc21 [Compound Z968524204] | 2 |
| O=S1(=O)CCC(S(=O)(=O)NC2CCCCCC2)CC1 [Compound Z968739862] | 50 |
| Cc1ccccc1CN(C)S(=O)(=O)C1CCS(=O)(=O)CC1 [Compound Z968740596] | -2 |
| Cc1ccnn1-c1ccc(C(=O)N2CCC(N3CCCC3C(N)=O)CC2)cc1 (stereo not shown) [Compound Z968814168] | -8 |
| C(=N/Nc1nc2ccccc2nc1-c1ccccc1)/c1ccc2nccnc2c1 [Compound Z969651240] | 11 |
| O=C(/C=C/c1cccnc1)c1ccc(N2CCOC2=O)cc1 [Compound Z970272914] | 16 |
| CC(C)C(C)NC(=O)C1CCN(Cc2ccc(C#N)cc2)CC1 (stereo not shown) [Compound Z975048678] | 5 |
| Cc1cc(CN2CCSCC2)ccc1NC(=O)c1ccnc(N(C)C)c1 [Compound Z978895402] | 0 |
| CC(C)NC(=O)Nc1ccc(C(=O)N(CCC#N)Cc2ccco2)cc1 [Compound Z979061162] | 7 |
| Cn1c(CSc2n[nH]c(-c3ccccc3F)n2)nc2ccccc21 [Compound Z982182198] | 4 |
| CS(=O)(=O)Cc1ccc(CNc2ccnc3c(F)ccc(F)c23)cc1 [Compound Z983418922] | -17 |
| O=C(Nc1cccc(OCCn2cccn2)c1)NC1CCSCC1 [Compound Z987964770] | 8 |
| Cc1cccc(NCC2CCN(c3ncnc4c3cnn4C)C2)n1 (stereo not shown) [Compound Z990436502] | 6 |
| Cc1ccnc(NCC2CCN(Cc3cccc(C(N)=O)c3)C2)c1 (stereo not shown) [Compound Z990550860] | -3 |
| Cc1cccc(NCC2CCN(Cc3cccc(C(N)=O)c3)C2)n1 (stereo not shown) [Compound Z990551490] | 2 |
| N#CCCn1ncc2c(NCc3ccc4c(c3)OCCO4)ncnc21 [Compound Z990838348] | 2 |
| OCCn1ncc2c(NCCc3nnc4ccccn34)ncnc21 [Compound Z990848218] | -6 |
| N#CCCn1ncc2c(N3CCN(Cc4ccco4)CC3)ncnc21 [Compound Z990852254] | 3 |
| CC1CN(c2ncnc3c2cnn3CCC#N)CCO1 (stereo not shown) [Compound Z990855820] | 4 |
| N#CCCn1ncc2c(NC3CCCC(C(F)(F)F)C3)ncnc21 (stereo not shown) [Compound Z990858522] | -12 |
| CC(C)C(=O)N1CCC(Nc2ncnc3c2cnn3CCC#N)CC1 [Compound Z990868196] | -8 |
| CC(CNc1ncnc2c1cnn2CCO)Cn1cccn1 (stereo not shown) [Compound Z990883644] | 11 |

| Compound | First screening IR (inhibition rate) [%] |
| --- | --- |
| COc1c(CNCc2ccc(C(=O)N(C)C)cc2)c(C)nn1C [Compound Z991036884] | 27 |
| O=C(NCc1nc(-c2ccccc2)n[nH]1)c1ccc(-c2ccccc2)cc1 [Compound Z991809296] | -14 |
| O=C(Cc1ccc(OC(F)F)cc1)N1CCC(c2nc(-c3ccccc3)n[nH]2)CC1 [Compound Z991836758] | -3 |
| Cc1cccc(C(C)C)c1NC(=O)CN1CCCCC1Cc1ccccc1 (stereo not shown) [Compound Z991917352] | -4 |
| CCN1CCN(Cc2ccc(NC(=O)C3CCCN3C(=O)c3ccc4ccccc4c3O)cc2)CC1 (stereo not shown) [Compound Z992207680] | 51 |
| Cc1nn(CC(C)C)c2sc(C(=O)N3c4ccccc4C[C@H]3C(N)=O)cc12 [Compound Z996487836] | 1 |
| O=C(c1cccn1Cc1ccncc1)N1CCOC(c2ccc(F)cc2)C1 (stereo not shown) [Compound Z998371530] | 13 |
| Cc1nc(NC(=O)c2cccc(NC(N)=O)c2)sc1SCC#N [Compound Z1000171966] | -2 |
| Cc1ccnc(NC(=O)C2CCN(c3ccc(C#N)cc3F)CC2)c1 [Compound Z1002220042] | 1 |
| COc1ccc(-c2c(C#N)c(=O)[nH]c3c2c(C)nn3-c2ccccc2)cc1OC [Compound Z1007027518] | -1 |
| Cc1cc(C)c2c(c1)C(O)(CC(=O)c1ccccc1)C(=O)N2 (stereo not shown) [Compound Z1013750782] | 0 |
| FC(F)(F)c1ccnc(Nc2ccc(NC3CCOCC3)cc2)n1 [Compound Z1021076320] | 13 |
| O=C(O)c1cnc(/C=C/c2cccnc2)s1 [Compound Z1021595256] | 0 |
| CNC(=O)c1cnc(/C=C/c2cccnc2)s1 [Compound Z1029489284] | 5 |
| CCN1CCN(S(=O)(=O)C2CS(=O)(=O)c3ccccc32)CC1 (stereo not shown) [Compound Z1031094372] | 8 |
| CC1(C)CN(S(=O)(=O)C2CS(=O)(=O)c3ccccc32)CCO1 (stereo not shown) [Compound Z1031114832] | -4 |
| CC(C)CNC(=O)c1c(N)n(CCc2ccccc2)c2nc3ccccc3nc12 [Compound Z1033301058] | -2 |
| CC1CN(CC2CCN(CC(=O)Nc3cc(Cl)ccc3Cl)CC2)CC(C)O1 (stereo not shown) [Compound Z1033314424] | 2 |
| Cc1nc(-c2ccc(Br)cc2)nc(NCCO)c1C [Compound Z1037335626] | 13 |
| CCN(CC)C(=O)c1ccc(NS(=O)(=O)c2cc3c(cc2Cl)NC(=O)C3)cc1 [Compound Z1037385644] | -4 |
| Cc1ccc(C(=O)Nc2cc(C(=O)N3CCCCC3)ccc2Cl)o1 [Compound Z1037939812] | 3 |
| NC(=O)N1CCC(C(=O)N2CCCC2CC2CC3CCC2C3)CC1 (stereo not shown) [Compound Z1038829842] | 2 |
| N#Cc1cnc(N2CCN(S(=O)(=O)c3cc(Cl)ccc3Cl)CC2)c(Cl)c1 [Compound Z1039059796] | 0 |

Same assay, conditions: second screening, dissolved from fresh powder; n = 4; 10 μmol L−1 compound

| Compound | Second screening IR (inhibition rate) [%] |
| --- | --- |
| COC(=O)c1sc2ncc(/C=C/C(=O)c3cccnc3)cc2c1C [Compound Z871886494] | 12 |
| COc1c(CNCc2ccc(C(=O)N(C)C)cc2)c(C)nn1C [Compound Z991036884] | -29 |
